This note sets out measurements from patent US20190010139A1 (priority 2015, published 2019).

One may read the EC50 as the midpoint of the concentration-response curve.

Each structure is given as a SMILES string. pEC50: −log10 of the molar value. Like-named read-outs stand apart in the source and are kept apart here. A value given as a limit tells only on which side of the number the result lay.

In the assay the test system is NL-RLuc virus. The assay can be described thus: Inhibition of HIV replication (NL-RLuc luciferase reporter virus in MT-2 cells). The format is cell-based. Conditions: Human immunodeficiency virus 1, MT2, 120 h; for pEC50: read-out: Activity; for EC50: read-out: EC50 μM. The text has this: Inhibition of HIV Replication:
A recombinant NL-RLuc proviral clone was constructed in which a section of the nef gene from NL4-3 was replaced with the Renilla Luciferase gene. This virus is fully infectious and can undergo multiple cycles of replication in cell culture. In addition, the luciferous reporter provides a simple and easy method for quantitating the extent of virus growth and consequently, the antiviral activity of test compounds. The plasmid pNLRLuc contains the proviral NL-Rluc DNA cloned into pUC 18 at the PvuII site. The NL-RLuc virus was prepared by transfection of 293T cells with the plasmid pNLRLuc. Transfections were performed using the LipofectAMINE PLUS kit from Invitrogen (Carlsbad, Calif.) according to the manufacturer and the virus generated was titered in MT-2 cells. For susceptibility analyses, the titrated virus was used to infect MT-2 cells in the presence of compound, and after 5 days of incubation, cells were processed and quantitated for virus growth by the amount of expressed luciferase. Assay media was RPMI 1640 supplemented with 10% heat inactivated fetal bovine serum (FBS), 100 units/ml penicillin G/100 units/ml streptomycin, 10 mM HEPES buffer pH 7.55 and 2 mM L-glutamine. The results from at least 2 experiments were used to calculate the EC50 values. Luciferase was quantitated using the Dual Luciferase kit from Promega (Madison, Wis.). Susceptibility of viruses to compounds was determined by incubation in the presence of serial dilutions of the compound. The 50% effective concentration (EC50) was calculated by using the exponential form of the median effect equation where (Fa)=1/[1+(ED50/drug conc.)^m](Johnson V A, Byington R T. Infectivity Assay. In Techniques in HIV Research. ed. Aldovini A, Walker B D. 71-76. New York: Stockton Press.1990). Activity equal to A refers to a compound having an EC50≤100 nM, while B and C denote compounds having an EC50 between 100 nM and 1 uM (B) or >1 uM (C).
Background: Reporter assays use an easily measured gene product as a stand-in for the process of interest.

For `COc1cc(-c2c(C)nc(C)c([C@H](OC(C)(C)C)C(=O)O)c2N2CCC3(CCCC3)CC2)ccc1C(=O)NCc1ccccc1` [Example 25, (S)-2-(5-(4-(Benzylcarbamoyl)-3-methoxyphenyl)-2,6-dimethyl-4-(8-azaspiro[4.5]decan-8-yl)pyridin-3-yl)-2-(tert-butoxy)acetic acid], the pEC50 is over 7.00.

Turning to `Cc1nc(C)c([C@H](OC(C)(C)C)C(=O)O)c(N2CCC3(CCCC3)CC2)c1-c1ccc2c(c1)CCN(Cc1ccccc1F)C2` [Example 26, (S)-2-(tert-Butoxy)-2-(5-(2-(2-fluorobenzyl)-1,2,3,4-tetrahydroisoquinolin-6-yl)-2,6-dimethyl-4-(8-azaspiro[4.5]decan-8-yl)pyridin-3-yl)acetic acid], the pEC50 is over 7.00.

Turning to `Cc1nc(C)c([C@H](OC(C)(C)C)C(=O)O)c(N2CCC3(CCC3)CC2)c1-c1ccc(OCCc2ccc(F)cc2)cc1` [Example 27, (S)-2-(tert-Butoxy)-2-(5-(4-(4-fluorophenethoxy)phenyl)-2,6-dimethyl-4-(7-azaspiro[3.5]nonan-7-yl)pyridin-3-yl)acetic acid], the pEC50 is over 7.00. On the same count and under the same terms, under `Cc1nc(C)c([C@H](OC(C)(C)C)C(=O)O)c(N2CCC3(CCC3)CC2)c1-c1ccc(OCC(C)(C)c2ccc(F)cc2)cc1` [Example 28, (S)-2-(tert-butoxy)-2-(5-(4-(2-(4-fluorophenyl)-2-methylpropoxy)phenyl)-2,6-dimethyl-4-(7-azaspiro[3.5]nonan-7-yl)pyridin-3-yl)acetic acid] stands over 7.00. In the case of `Cc1nc(C)c([C@H](OC(C)(C)C)C(=O)O)c(N2CCC3(CCC3)CC2)c1-c1ccc(C(=O)NCc2ccccc2)cc1` [Example 29, (S)-2-(5-(4-(Benzylcarbamoyl)phenyl)-2,6-dimethyl-4-(7-azaspiro[3.5]nonan-7-yl)pyridin-3-yl)-2-(tert-butoxy)acetic acid], the pEC50 was over 7.00 and the EC50 amounted to 0.007 µM. With `Cc1nc(C)c([C@H](OC(C)(C)C)C(=O)O)c(N2CCC3(CCC3)CC2)c1-c1ccc(C(=O)NCc2ccccc2)c(F)c1` [Example 31, (S)-2-(5-(4-(Benzylcarbamoyl)-3-fluorophenyl)-2,6-dimethyl-4-(7-azaspiro[3.5]nonan-7-yl)pyridin-3-yl)-2-(tert-butoxy)acetic acid], the pEC50 was over 7.00. Still for that read-out and setting: the figure for `COc1cc(-c2c(C)nc(C)c([C@H](OC(C)(C)C)C(=O)O)c2N2CCC3(CCC3)CC2)ccc1C(=O)NCc1ccccc1` [Example 32, (S)-2-(5-(4-(Benzylcarbamoyl)-3-methoxyphenyl)-2,6-dimethyl-4-(7-azaspiro[3.5]nonan-7-yl)pyridin-3-yl)-2-(tert-butoxy)acetic acid] is over 7.00. Turning to `Cc1nc(C)c([C@H](OC(C)(C)C)C(=O)O)c(N2CCC3(CCC3)CC2)c1-c1ccc2c(c1)CCN(Cc1ccccc1F)C2` [Example 33, (S)-2-(tert-Butoxy)-2-(5-(2-(2-fluorobenzyl)-1,2,3,4-tetrahydroisoquinolin-6-yl)-2,6-dimethyl-4-(7-azaspiro[3.5]nonan-7-yl)pyridin-3-yl)acetic acid], the pEC50 is over 7.00. On the same count and under the same terms, the figure for `Cc1cccc(F)c1CN1CCc2cc(-c3c(C)nc(C)c([C@H](OC(C)(C)C)C(=O)O)c3N3CCC4(CCC4)CC3)ccc2C1` [Example 34, (S)-2-(tert-Butoxy)-2-(5-(2-(2-fluoro-6-methylbenzyl)-1,2,3,4-tetrahydroisoquinolin-6-yl)-2,6-dimethyl-4-(7-azaspiro[3.5]nonan-7-yl)pyridin-3-yl)acetic acid] is over 7.00.

With `Cc1cc(F)ccc1CN1CCc2cc(-c3c(C)nc(C)c([C@H](OC(C)(C)C)C(=O)O)c3N3CCC4(CCC4)CC3)ccc2C1` [Example 35, (S)-2-(tert-Butoxy)-2-(5-(2-(4-fluoro-2-methylbenzyl)-1,2,3,4-tetrahydroisoquinolin-6-yl)-2,6-dimethyl-4-(7-azaspiro[3.5]nonan-7-yl)pyridin-3-yl)acetic acid], the pEC50 was over 7.00 and the EC50 was found to be 0.006 µM. In the case of `Cc1ccc(CN2CCc3cc(-c4c(C)nc(C)c([C@H](OC(C)(C)C)C(=O)O)c4N4CCC5(CCC5)CC4)ccc3C2)c(F)c1` [Example 37, (S)-2-(tert-Butoxy)-2-(5-(2-(2-fluoro-4-methylbenzyl)-1,2,3,4-tetrahydroisoquinolin-6-yl)-2,6-dimethyl-4-(7-azaspiro[3.5]nonan-7-yl)pyridin-3-yl)acetic acid], the pEC50 is over 7.00. For `Cc1nc(CO)c(-c2ccc(OCCc3ccc(F)cc3)cc2)c(N2CCC3(CCC3)CC2)c1[C@H](OC(C)(C)C)C(=O)O` [Example 38, (S)-2-(tert-Butoxy)-2-(5-(4-(4-fluorophenethoxy)phenyl)-6-(hydroxymethyl)-2-methyl-4-(7-azaspiro[3.5]nonan-7-yl)pyridin-3-yl)acetic acid], the pEC50 was over 7.00. On the same count and under the same terms, under `Cc1nc(CO)c([C@H](OC(C)(C)C)C(=O)O)c(N2CCC3(CCC3)CC2)c1-c1ccc(OCCc2ccc(F)cc2)cc1` [Example 39, (S)-2-(tert-Butoxy)-2-(5-(4-(4-fluorophenethoxy)phenyl)-2-(hydroxymethyl)-6-methyl-4-(7-azaspiro[3.5]nonan-7-yl)pyridin-3-yl)acetic acid] stands over 7.00; under `Cc1nc(CF)c(-c2ccc(OCCc3ccc(F)cc3)cc2)c(N2CCC3(CCC3)CC2)c1[C@H](OC(C)(C)C)C(=O)O` [Example 40, (S)-2-(tert-Butoxy)-2-(6-(fluoromethyl)-5-(4-(4-fluorophenethoxy)phenyl)-2-methyl-4-(7-azaspiro[3.5]nonan-7-yl)pyridin-3-yl)acetic acid], over 7.00; under `CCOCc1nc(C)c([C@H](OC(C)(C)C)C(=O)O)c(N2CCC3(CCC3)CC2)c1-c1ccc(OCCc2ccc(F)cc2)cc1` [Example 41, (S)-2-(tert-Butoxy)-2-(6-(ethoxymethyl)-5-(4-(4-fluorophenethoxy)phenyl)-2-methyl-4-(7-azaspiro[3.5]nonan-7-yl)pyridin-3-yl)acetic acid], over 7.00. With `COCCNCc1nc(C)c([C@H](OC(C)(C)C)C(=O)O)c(N2CCC3(CCC3)CC2)c1-c1ccc(OCCc2ccc(F)cc2)cc1` [Example 42, (S)-2-(tert-Butoxy)-2-(5-(4-(4-fluorophenethoxy)phenyl)-6-(((2-methoxyethyl)amino)methyl)-2-methyl-4-(7-azaspiro[3.5]nonan-7-yl)pyridin-3-yl)acetic acid], the pEC50 was over 7.00 and the EC50 stood at 0.002 µM.

For the compound `COCCN(C)Cc1nc(C)c([C@H](OC(C)(C)C)C(=O)O)c(N2CCC3(CCC3)CC2)c1-c1ccc(OCCc2ccc(F)cc2)cc1` [Example 43, (S)-2-(tert-Butoxy)-2-(5-(4-(4-fluorophenethoxy)phenyl)-6-(((2-methoxyethyl)(methyl)amino)methyl)-2-methyl-4-(7-azaspiro[3.5]nonan-7-yl)pyridin-3-yl)acetic acid], the pEC50 is over 7.00. Still for that read-out and setting: the figure for `Cc1nc(CN2CCCC2)c(-c2ccc(OCCc3ccc(F)cc3)cc2)c(N2CCC3(CCC3)CC2)c1[C@H](OC(C)(C)C)C(=O)O` [Example 44, (S)-2-(tert-Butoxy)-2-(5-(4-(4-fluorophenethoxy)phenyl)-2-methyl-6-(pyrrolidin-1-ylmethyl)-4-(7-azaspiro[3.5]nonan-7-yl)pyridin-3-yl)acetic acid] is over 7.00.
